Entries after “also recorded” stand apart in the source; their conditions may differ.
Key:
[1] = system: progesterone-induced endometrial proliferation; assay: AntiMcGinty test; type: in vivo, rabbit; settings: for ANTIPROGESTATIONAL Anti-McGinty: relative potency, CDB-2914 = 100 (assigned), intraluminal, rabbit
Procedure: AntiMcGinty Test (McGinty, et al., Endocrinology, 24:829-832 (1939))
Immature female rabbits of the New Zealand White breed (approx. 1 kg body weight) were maintained under standard laboratory conditions and received a subcutaneous injection of 5 μg estradiol in 10% ethanol/sesame oil daily for 6 consecutive days. Twenty-four hours after the last injection of estradiol (day 7) animals underwent sterile abdominal surgery to ligate a 3-4 cm segment of both uterine horns. The experimental compound in appropriate solvent (usually 10% ethanol/sesame oil) was injected intraluminally into the ligated segment of one uterine horn and the vehicle alone into the ligated segment of the contralateral horn. Injection volume was limited to 0.1 ml, and care was taken to prevent leakage. A stimulating dose of progesterone (0.8 mg/day) was administered subcutaneously to each rabbit daily for the next three days (days 7, 8 and 9) for the purpose of inducing endometrial proliferation. All animals were sacrificed on day 10 when a segment central to the ligatures was removed and fixed in 10% neutral buffered formalin and submitted for histological processing. Five micron sections stained with hematoxylin and eosin (H&E) were evaluated microscopically for the degree of endometrial glandular proliferation according to the method of McPhail (McPhail, J. Physiol., 83:145 (1934). The percent inhibition of endometrial proliferation for each rabbit was calculated and the mean of the group of five animals recorded.

[2] = biological target: T1, progesterone receptor (estrogen-primed rabbit uterus) (Oryctolagus cuniculus, UniProt P06186); assay: Relative binding affinity, progesterone receptor; settings: for binding affinities compared with the standard, compound 69B: progesterone receptor implied (rabbit or human isoform A not specified)
T1 construct: preparation of cytosols for the progesterone and glucocorticoid receptor assays; from tissue; host or cells: uterus of estradiol-primed immature female New Zealand White rabbits (cytosol)
T1 sequence (P06186 1-930): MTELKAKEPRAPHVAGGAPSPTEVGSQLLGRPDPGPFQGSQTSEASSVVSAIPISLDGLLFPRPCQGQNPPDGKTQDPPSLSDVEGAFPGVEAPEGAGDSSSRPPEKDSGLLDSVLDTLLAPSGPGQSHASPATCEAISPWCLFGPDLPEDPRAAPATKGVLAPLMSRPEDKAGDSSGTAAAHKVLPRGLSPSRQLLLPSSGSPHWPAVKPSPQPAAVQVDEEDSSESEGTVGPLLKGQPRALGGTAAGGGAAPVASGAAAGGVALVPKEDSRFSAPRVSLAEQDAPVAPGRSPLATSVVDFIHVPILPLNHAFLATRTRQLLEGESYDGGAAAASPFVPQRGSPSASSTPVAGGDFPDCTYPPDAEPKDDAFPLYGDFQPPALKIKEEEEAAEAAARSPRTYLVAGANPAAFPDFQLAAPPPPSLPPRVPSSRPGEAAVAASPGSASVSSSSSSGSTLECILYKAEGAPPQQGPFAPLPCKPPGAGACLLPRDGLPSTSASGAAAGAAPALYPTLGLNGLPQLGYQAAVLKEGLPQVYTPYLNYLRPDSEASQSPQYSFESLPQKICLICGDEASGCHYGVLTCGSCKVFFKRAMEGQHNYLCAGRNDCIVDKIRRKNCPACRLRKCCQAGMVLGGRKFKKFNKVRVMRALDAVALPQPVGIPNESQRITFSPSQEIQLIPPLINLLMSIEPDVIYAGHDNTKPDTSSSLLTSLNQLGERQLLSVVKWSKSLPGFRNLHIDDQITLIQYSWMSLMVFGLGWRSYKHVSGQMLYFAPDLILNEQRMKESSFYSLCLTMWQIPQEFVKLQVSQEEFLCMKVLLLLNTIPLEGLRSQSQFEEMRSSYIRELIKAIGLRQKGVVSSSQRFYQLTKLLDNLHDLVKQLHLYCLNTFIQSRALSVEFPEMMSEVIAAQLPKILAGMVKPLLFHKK
Procedure: (§1) Relative Binding Affinities for the Progesterone and Glucocorticoid Receptors
(§2) Uteri and thymus glands were obtained from estradiol-primed immature female rabbits of the New Zealand White strain for preparation of cytosols for the progesterone and glucocorticoid receptor assays, respectively. Tissues were excised and immediately placed in ice cold TEGDM buffer (10 mM Tris, pH 7.4; 1.5 mM EDTA; 10% glycerol vol/vol/; 1 mM dithiothreitol [DTT]; and 20 mM sodium molybdate). The tissues were dissected free of connective tissue and fat, weighed and minced finely. Minced tissues were homogenized in 3 volumes TEGDM/gm with four 10 second bursts of a VirTis Cyclone set at half maximum speed with a 30 second cooling period (in ice) between bursts. Homogenates were centrifuged at 109,663 g at 4° C. for 1 hour to yield the soluble cytosol fiction. Aliquots of cytosol were snap frozen and stored at −75° C.
(§3) All binding assays were carried out at 2-6° C. for 16-18 hours. The following radioactive ligands were used: [1,2-^3H(N)]-progesterone (50.0 Ci/mmole) for the progesterone receptor (PR). […] For the progesterone receptor RBA assays 0.02 ml uterine cytosol or TEDGM buffer, 0.05 ml of various concentrations of test compounds or progesterone, 0.13 ml TEGDM buffer and 0.05 ml [^3H]-progesterone were added to duplicate tubes. For the glucocorticoid receptor RBA assays 0.1 ml thymus cytosol or TEDGM buffer, 0.05 ml of various concentrations of test compounds or dexamethasone, 0.05 ml TEGDM buffer and 0.05 ml [3H]-dexamethasone were added to duplicate tubes. For the estrogen receptor RBA assays 0.05 ml uterine cytosol, 0.1 ml TEGDM buffer, 0.05 ml of various concentrations of test compounds or estradiol and 0.05 ml [^3H]-estradiol were added to duplicate tubes. The concentrations of the test compounds, progesterone, dexamethasone and estradiol ranged from 0.05 to 100 nM and the concentrations of the competitors ranged from 0.5 to 500 nM. Total binding was measured at radioligand concentrations of 3.5 nM and nonspecific binding was measured in the presence of a 200-fold excess of unlabeled progesterone (PR), dexamethasone (GR) or diethylstilbestrol (ER), respectively.
(§4) In all incubations bound and free ligand were separated using dextra-coated charcoal (DCC). A 0.1 ml aliquot of DCC (0.5% charcoal/0.05% Dextran T-70) was added to each tube. The tubes were vortexed and incubated on ice for 10 minutes. Five-tenths ml TEG buffer (without DTT or molybdate) was then added to all tubes to improve supernatant recovery following centrifugation. The charcoal was pelleted by centrifugation at 2,100 g for 15 minutes at 4° C. The supernatants containing the [^3H]-steroid receptor complexes were decanted into vials containing 4 ml Optifluor (Packard Instrument Co.), vortexed, equilibrated in a liquid scintillation counter for 30 minutes and then counted for 2 minutes. This provided the quantity of receptor bound [^3H]-steroid at each competitor concentration.

[3] = biological target: T2, glucocorticoid receptor (estrogen-primed rabbit thymus) (Oryctolagus cuniculus, UniProt P59667); assay: Relative binding affinity, glucocorticoid receptor
T2 construct: preparation of cytosols for the progesterone and glucocorticoid receptor assays; from tissue; host or cells: thymus of estradiol-primed immature female New Zealand White rabbits (cytosol)
T2 sequence (P59667 1-772): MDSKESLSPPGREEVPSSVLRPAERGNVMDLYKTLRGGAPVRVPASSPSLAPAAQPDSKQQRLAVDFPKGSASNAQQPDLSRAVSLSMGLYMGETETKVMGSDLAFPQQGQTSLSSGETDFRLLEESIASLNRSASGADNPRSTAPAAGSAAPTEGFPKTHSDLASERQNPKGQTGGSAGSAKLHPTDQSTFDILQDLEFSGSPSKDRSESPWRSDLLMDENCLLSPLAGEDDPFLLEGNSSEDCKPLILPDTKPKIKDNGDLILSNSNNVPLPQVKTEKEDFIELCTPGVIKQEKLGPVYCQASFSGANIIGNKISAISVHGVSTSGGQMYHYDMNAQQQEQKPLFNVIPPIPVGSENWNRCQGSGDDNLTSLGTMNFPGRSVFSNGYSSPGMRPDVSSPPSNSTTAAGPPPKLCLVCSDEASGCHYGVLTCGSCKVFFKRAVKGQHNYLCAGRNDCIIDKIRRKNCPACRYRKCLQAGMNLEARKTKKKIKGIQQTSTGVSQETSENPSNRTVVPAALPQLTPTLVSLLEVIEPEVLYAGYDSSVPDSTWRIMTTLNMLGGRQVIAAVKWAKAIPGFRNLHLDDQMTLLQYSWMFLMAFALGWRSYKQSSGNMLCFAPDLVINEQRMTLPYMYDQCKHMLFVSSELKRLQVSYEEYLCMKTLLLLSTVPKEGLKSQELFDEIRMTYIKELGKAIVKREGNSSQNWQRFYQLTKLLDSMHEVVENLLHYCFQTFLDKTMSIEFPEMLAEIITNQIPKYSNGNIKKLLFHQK
Procedure: as §1, §2, §3, §4

[4] = system: progesterone-induced endometrial proliferation; assay: AntiClauberg test; type: in vivo, rabbit; parameters: key to ANTIPROGESTATIONAL Anti-Clauberg: relative oral potency vs. reference compound set to 100; settings: oral
Procedure: AntiClauberg Test (Clauberg, C., Zentr. Gynakol., 54:2757-2770 (1930)) Immature female rabbits of the New Zealand White breed (approx. 1 kg body weight) were maintained under standard laboratory conditions and received a subcutaneous injection of 5 μg estradiol in 10% ethanol/sesame oil daily for 6 consecutive days. Twenty-four hours after the last dose of estradiol (day 7) animals received progesterone by subcutaneous injection (0.8 mg/day) and the experimental compound in appropriate vehicle (usually 10% ethanol/sesame oil) orally or subcutaneously for five consecutive days. One group of rabbits received progesterone only. Twenty-four hours after the last dose all animals were sacrificed for removal of the uterus which was cleaned of all fat and connective tissue, weighed to the nearest 0.2 mg and placed in 10% neutral buffered formalin for subsequent histological processing. Five micron sections stained with hematoxylin and eosin (H&E) were evaluated microscopically for the degree of endometrial glandular proliferation according to the method of McPhail (McPhail, supra). The percent inhibition of endometrial proliferation at each dose level of the experimental compound was derived by comparison with the progesterone-stimulated animals alone.

[5] = estrogen-primed rabbit uterus, progesterone = 100%
[6] = estrogen-primed rabbit thymus, dexamethasone = 100%

Compound | ANTIPROGESTATIONAL Anti-McGinty [1] | RELATIVE BINDING AFFINITY Progesterone [2, 5] | binding affinities compared with the standard, compound 69B [2] | RELATIVE BINDING AFFINITY Glucocorticoid [3, 6] | further results
CCC(=O)[C@@]1(OC(C)=O)CCC2C3CCC4=CC(=O)CCC4=C3C(c3ccc(N(C)C)cc3)C[C@@]21C (stereo partly drawn) [Compound 28, 17α-acetoxy-21-methyl-11β-[4-(N,N-dimethylamino)phenyl]-19-norpregna-4,9-diene-3,20-dione] | 32 | 129% | binding affinities greater than that observed for the standard | 126% | 
CC(=O)O[C@]1(C(=O)CBr)CCC2C3CCC4=CC(=O)CCC4=C3C(c3ccc(N(C)C)cc3)C[C@@]21C (stereo partly drawn) [Compound 14B, 17α-acetoxy-21-bromo-11β-[4-(N,N-dimethylamino)phenyl]-19-norpregna-4,9-diene-3,20-dione] | 71 | 130% | binding affinities greater than that observed for the standard | 175% | antiprogestational activity compared with the lead compound / standard, in words ([1]; antiMcGinty (and antiClauberg), versus CDB-2914 (69B)): did not show significant differences; binding affinity for the progesterone receptor, in words ([2]; rabbit uterine, versus CDB-2914 (69B) where stated): did not show significant differences
CC(=O)O[C@]1(C(=O)CSC(C)=O)CC[C@H]2[C@@H]3CCC4=CC(=O)CCC4=C3[C@@H](c3ccc(N(C)C)cc3)C[C@@]21C [Compound 17, 17α-acetoxy-21-acetylthio-11β-[4-(N,N-dimethylamino)phenyl]-19-norpregna-4,9-diene-3,20-dione] | 65 | 37% |  | 54% | 
CC(=O)SCC(=O)C1(O)CCC2C3CCC4=CC(=O)CCC4=C3C(c3ccc(N(C)C)cc3)CC21C (centres unmarked) [Compound 16] | >2 | 6% |  | 77% | 
COCC(=O)[C@@]1(OC(C)=O)CC[C@H]2[C@@H]3CCC4=CC(=O)CCC4=C3[C@@H](c3ccc(N(C)C)cc3)C[C@@]21C [Compound 38, 17α-acetoxy-21-methoxy-11β-(4-N,N-dimethylaminophenyl)-19-norpregna-4,9-diene-3,20-dione] |  | 103% | binding affinities greater than that observed for the standard | 52% | ANTIPROGESTATIONAL Anti-Clauberg ([4]; relative potency, CDB-2914 = 100 (assigned)): 361; antiprogestational potency compared to the lead compound (CDB-2914), oral antiClauberg test ([4]; versus CDB-2914): 3.61 times; antiClauberg / oral antiprogestational activity, in words ([4]; versus the standard 69B): greater activity than the standard; binding affinity for the glucocorticoid receptor, in words ([3]; rabbit thymus, versus CDB-2914 (69B) where stated): substantial reduction in glucocorticoid binding affinity; also recorded: low binding affinity
CC(=O)O[C@]1(C(=O)COC(=O)CN(C)C)CC[C@H]2[C@@H]3CCC4=CC(=O)CCC4=C3[C@@H](c3ccc(N(C)C)cc3)C[C@@]21C [Compound 133, 17α-Acetoxy-1-[4-(N,N-dimethylamino)phenyl]-21-(2′-N,N-dimethylamino)acetoxy-19-norpregna-4,9-diene-3,20-dione] |  |  |  |  | BINDING AFFINITY Progester ([2]; Table 2, estrogen-primed rabbit uterus, progesterone = 100%): 82%; BIOLOGICAL ACTIVITY antiClauberg ([4]; Table 2, CDB-2914 = 100 (assigned)): 95; BINDING AFFINITY Glucocortic ([3]; Table 2, estrogen-primed rabbit thymus, dexamethasone = 100%): 13%
